Measured values taken from US20090012091A1, “Oximide derivatives and their therapeutical application” (KinaGen, Inc., priority 2007, published 2009).

Target: T1, B-raf kinase (Homo sapiens, UniProt P15056)
T1 construct: made in house; host or cells: Sf9 insect cells (baculovirus)
Assay: in vitro Raf Kinase Assay (33P-phosphate incorporation into GST-kdMEK)
Format: biochemical
Details: human recombinant Raf protein, substrate GST-kdMEK, 33P-ATP, 25° C., 90 minutes; read-out: IC50 (concentration of test compound required to inhibit 50% of the B-raf kinase activity)
Experimental: Activity of human recombinant Raf protein was assessed in vitro by assay of the incorporation of radiolabelled phosphate to recombinant MAP kinase (MEK), a known physiologic substrate of Raf. Catalytically active human recombinant Raf protein was obtained by purification from sf9 insect cells infected with a human Raf recombinant baculovirus expression vector.
Method: Standard assay conditions of Raf catalytic activity utilized […] of GST-kdMBK, 10 µM ATP and 2 uCi ^33P-ATP, 50 mM MOPS, 0.1 mM EDTA, 0.1M sucrose, 10 mM MgCl2 plus 0.1% dimethylsulphoxide (containing compound where appropriate) in a total reaction volume of 30 ul. Reactions were incubated at 25° C. for 90 minutes and reactions terminated by addition of EDTA to a final concentration of […]. 10 ul of reaction was spotted to P30 phosphocellulose paper and air dried. Following four washes in ice cold 10% trichloroacetic acid, 0.5% phosphoric acid, papers were air dried prior to addition of liquid scintillant and measurement of radioactivity in a scintillation counter. The % inhibition of the B-raf kinase activity is calculated and plotted in order to determine the concentration of test compound required to inhibit 50% of the B-raf kinase activity (IC50).

T1 sequence (P15056 whole entry): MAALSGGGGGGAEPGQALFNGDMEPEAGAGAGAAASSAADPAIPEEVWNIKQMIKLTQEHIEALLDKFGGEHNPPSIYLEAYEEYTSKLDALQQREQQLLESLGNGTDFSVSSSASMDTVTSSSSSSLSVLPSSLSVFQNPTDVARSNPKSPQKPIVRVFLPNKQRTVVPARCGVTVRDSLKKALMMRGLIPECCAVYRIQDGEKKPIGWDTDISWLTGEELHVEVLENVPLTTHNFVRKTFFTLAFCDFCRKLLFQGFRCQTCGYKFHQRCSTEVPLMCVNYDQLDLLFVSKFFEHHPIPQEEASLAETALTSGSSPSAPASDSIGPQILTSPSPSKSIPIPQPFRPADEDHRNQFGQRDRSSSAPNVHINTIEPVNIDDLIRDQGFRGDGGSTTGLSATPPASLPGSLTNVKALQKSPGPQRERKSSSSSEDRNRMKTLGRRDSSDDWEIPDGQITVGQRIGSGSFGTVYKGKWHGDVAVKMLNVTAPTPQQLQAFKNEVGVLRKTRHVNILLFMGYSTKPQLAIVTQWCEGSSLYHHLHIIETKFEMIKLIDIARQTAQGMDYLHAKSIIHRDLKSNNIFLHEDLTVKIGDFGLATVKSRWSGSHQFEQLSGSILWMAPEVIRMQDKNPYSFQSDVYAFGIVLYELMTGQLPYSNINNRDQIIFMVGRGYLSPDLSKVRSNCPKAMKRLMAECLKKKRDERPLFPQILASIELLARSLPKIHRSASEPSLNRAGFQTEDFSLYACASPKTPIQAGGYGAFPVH

Row | Compound | IC50 [nM]
1 | CC(C)(C)OC(=O)c1cc(Oc2ccc(NC(=O)Nc3ccc(Cl)c(C(F)(F)F)c3)cc2)ccn1 [Compound 3, tert-butyl 4-(4-(3-(4-chloro-3-(trifluoromethyl)phenyl)ureido)phenoxy)picolinate] | < 10000
2 | O=C(Nc1ccc(Oc2ccnc(C(=O)O)c2)cc1)Nc1ccc(Cl)c(C(F)(F)F)c1 [Compound 4, 4-(4-(3-(4-chloro-3-(trifluoromethyl)phenyl)ureido)phenoxy)picolinic acid] | < 10000
3 | CONC(=O)c1cc(Oc2ccc(NC(=O)Nc3ccc(Cl)c(C(F)(F)F)c3)cc2)ccn1 [Compound 5, 4-(4-(3-(4-chloro-3-(trifluoromethyl)phenyl)ureido)phenoxy)-N-methoxypicolinamide] | < 1000
4 | CCCONC(=O)c1cc(Oc2ccc(NC(=O)Nc3ccc(Cl)c(C(F)(F)F)c3)cc2)ccn1 [Compound 6, 4-(4-(3-(4-chloro-3-(trifluoromethyl)phenyl)urei-do)phenoxy)-N-propoxypicolinamide] | < 1000
5 | CCONC(=O)c1cc(Oc2ccc(NC(=O)Nc3ccc(Cl)c(C(F)(F)F)c3)cc2)ccn1 [Compound 7, 4-(4-(3-(4-chloro-3-(trifluoromethyl)phenyl)urei-do)phenoxy)-N-ethoxypicolinamide] | < 1000
6 | CCN(CC)CCONC(=O)c1cc(Oc2ccc(NC(=O)Nc3ccc(Cl)c(C(F)(F)F)c3)cc2)ccn1 [Compound 8, 4-(4-(3-(4-chloro-3-(trifluoromethyl)phenyl)urei-do)phenoxy)-N-(2-(diethylamino)ethoxy)picolinamide] | < 1000
7 | CN(C)CCONC(=O)c1cc(Oc2ccc(NC(=O)Nc3ccc(Cl)c(C(F)(F)F)c3)cc2)ccn1 [Compound 9, 4-(4-(3-(4-chloro-3-(trifluoromethyl)phenyl)urei-do)phenoxy)-N-(2-(dimethylamino)ethoxy)picolinamide] | < 1000
8 | CCN(CC)C(=O)CONC(=O)c1cc(Oc2ccc(NC(=O)Nc3ccc(Cl)c(C(F)(F)F)c3)cc2)ccn1 [Compound 10, 4-(4-(3-(4-chloro-3-(trifluoromethyl)phenyl)urei-do)phenoxy)-N-(2-(diethylamino)-2-oxoethoxy)picolinamide] | < 1000
9 | CN(C)C(=O)CONC(=O)c1cc(Oc2ccc(NC(=O)Nc3ccc(Cl)c(C(F)(F)F)c3)cc2)ccn1 [Compound 11, 4-(4-(3-(4-chloro-3-(trifluoromethyl)phenyl)urei-do)phenoxy)-N-(2-(dimethylamino)-2-oxoethoxy)picolinamide] | < 1000
10 | CONC(=O)c1cc(Oc2ccc(NC(=O)Nc3ccc(Cl)cc3)cc2)ccn1 [Compound 12, 4-(4-(3-(4-chlorophenyl)ureido)phenoxy)-N-methoxypicolinamide] | < 1000
11 | CONC(=O)c1cc(Oc2ccc(NC(=O)Nc3cccc(C(F)(F)F)c3)cc2)ccn1 [Compound 13, N-methoxy-4-(4-(3-(3-(trifluoromethyl)phenyl)urei-do)phenoxy)picolinamide] | < 1000
12 | CONC(=O)c1cc(Oc2ccc(NC(=O)Nc3ccc(Cl)c(Cl)c3)cc2)ccn1 [Compound 14, 4-(4-(3-(3,4-dichlorophenyl)ureido)phenoxy)-N-methoxypicolinamide] | < 1000
13 | CONC(=O)c1cc(Oc2ccc(NC(=O)Nc3ccccc3)cc2)ccn1 [Compound 15, N-methoxy-4-(4-(3-phenylureido)phenoxy)picolinamide] | < 1000
14 | CONC(=O)c1cc(Oc2ccc(NC(=O)Nc3ccc(OC)c(OC)c3)cc2)ccn1 [Compound 16, 4-(4-(3-(3,4-dimethoxyphenyl)ureido)phenoxy)-N-methoxypicolinamide] | < 1000
15 | O=C(Nc1ccc(Oc2ccnc(C(=O)NOC3CCCC3)c2)cc1)Nc1ccc(Cl)c(Cl)c1 [Compound 17, N-(cyclopentyloxy)-4-(4-(3-(3,4-dichloro-phenyl)ureido)phenoxy)picolinamide] | < 1000
16 | O=C(Nc1ccccc1)Nc1ccc(Oc2ccnc(C(=O)NOC3CCCCC3)c2)cc1 [Compound 18, N-(cyclohexyloxy)-4-(4-(3-phenylureido)phenoxy)picolinamide] | < 1000
17 | COc1ccc(NC(=O)Nc2ccc(Oc3ccnc(C(=O)NOC4CCC4)c3)cc2)cc1OC [Compound 19, N-cyclobutoxy-4-(4-(3-(3,4-dimethoxyphenyl)urei-do)phenoxy)picolinamide] | < 1000
18 | CCNC(=O)c1cc(Oc2ccc(NC(=O)c3ccc(Cl)cc3)cc2)ccn1 [Compound 20, 4-(4-(4-chloro-benzamido)phenoxy)-N-ethylpicolinamide] | < 10000
19 | CCNC(=O)c1cc(Oc2ccc(NC(=O)c3ccc(Cl)c(Cl)c3)cc2)ccn1 [Compound 21, 4-(4-(3,4-dichlorobenzamido)phenoxy)-N-ethylpicolinamide] | < 10000
20 | O=C(Nc1ccc(Oc2cc(C(=O)NCCO)ncn2)cc1)Nc1ccc(Cl)c(C(F)(F)F)c1 [Compound 22, 6-(4-(3-(4-chloro-3-(trifluoro-methyl)phenyl)ureido)phenoxy)-N-(2-hydroxyethyl)pyrimidine-4-carboxamide] | < 1000
21 | CNC(=O)c1cc(Oc2ccc(NC(=O)Nc3ccc(Cl)c(C(F)(F)F)c3)cc2)ncn1 [Compound 23, 6-(4-(3-(4-chloro-3-(trifluoro-methyl)phenyl)ureido)phenoxy)-N-methylpyrimidine-4-carboxamide] | < 1000
22 | CNC(=O)c1cc(Oc2ccc(NC(=O)Nc3ccc(Cl)cc3)cc2)ncn1 [Compound 24, 6-(4-(3-(4-chlorophenyl)ureido)phenoxy)-N-methylpyrimidine-4-carboxamide] | < 1000
23 | CCONC(=O)c1cc(Oc2ccc(NC(=O)Nc3ccc(Cl)c(C(F)(F)F)c3)cc2)ncn1 [Compound 25, 6-(4-(3-(4-chloro-3-(trifluoro-methyl)phenyl)ureido)phenoxy)-N-ethoxypyrimidine-4-carboxamide] | < 1000
24 | CONC(=O)c1cc(Oc2ccc(NC(=O)Nc3ccc(Cl)c(C(F)(F)F)c3)cc2)ncn1 [Compound 26, 6-(4-(3-(4-chloro-3-(trifluoro-methyl)phenyl)ureido)phenoxy)-N-methoxypyrimidine-4-carboxamide] | < 1000
25 | CN(C)CCNC(=O)c1cc(Oc2ccc(NC(=O)Nc3ccc(Cl)c(C(F)(F)F)c3)cc2)ncn1 [Compound 27, 6-(4-(3-(4-chloro-3-(trifluoro-methyl)phenyl)ureido)phenoxy)-N-(2-(dimethylamino)ethyl)pyrimidine-4-carboxamide] | < 1000
26 | CNC(=O)c1ncnc(Oc2ccc(NC(=O)Nc3ccc(Cl)c(C(F)(F)F)c3)cc2)n1 [Compound 28, 4-(4-(3-(4-chloro-3-(trifluoro-methyl)phenyl)ureido)phenoxy)-N-methyl-1,3,5-triazine-2-carboxamide] | < 1000
